Assay results reported in ChEMBL document CHEMBL1177800, “Inhibition of ABCG2-mediated drug efflux by naphthopyrones from marine crinoids” (Bioorg Med Chem Lett, 2010).

Columns and labels:
[1] = target: T1, Broad substrate specificity ATP-binding cassette transporter ABCG2 (Homo sapiens, UniProt Q9UNQ0); assay: Inhibition of ABCG2-mediated drug efflux expressed in human NCI-H460 cells; assay type: cell-based
T1 sequence (Q9UNQ0 whole entry): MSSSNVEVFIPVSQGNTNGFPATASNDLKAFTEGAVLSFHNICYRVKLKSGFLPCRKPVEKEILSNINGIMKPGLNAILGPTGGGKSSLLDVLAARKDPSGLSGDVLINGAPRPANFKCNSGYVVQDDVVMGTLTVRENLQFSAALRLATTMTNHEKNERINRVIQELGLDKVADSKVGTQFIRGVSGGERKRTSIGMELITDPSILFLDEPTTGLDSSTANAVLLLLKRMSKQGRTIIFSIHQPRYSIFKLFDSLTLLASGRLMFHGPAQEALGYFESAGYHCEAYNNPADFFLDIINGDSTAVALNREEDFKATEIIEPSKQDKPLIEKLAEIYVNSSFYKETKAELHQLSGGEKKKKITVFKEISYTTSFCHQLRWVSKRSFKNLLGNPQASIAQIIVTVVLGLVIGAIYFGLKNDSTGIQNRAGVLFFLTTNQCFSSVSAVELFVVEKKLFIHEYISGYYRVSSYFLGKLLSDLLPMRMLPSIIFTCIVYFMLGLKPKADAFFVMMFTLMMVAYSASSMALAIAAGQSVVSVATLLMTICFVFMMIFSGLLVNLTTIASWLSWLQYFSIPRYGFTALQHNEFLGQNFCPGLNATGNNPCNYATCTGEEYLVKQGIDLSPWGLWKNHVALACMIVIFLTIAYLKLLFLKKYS

[2] = target: T1, Broad substrate specificity ATP-binding cassette transporter ABCG2; assay: Inhibition of ABCG2 expressed in human NCI-H460 cells assessed as inhibition of PhA accumulation relative to fumitremorgin C; assay type: cell-based

Compound	IC50 ([1]; nci-h460)	inhibition (INH) [2]	IC50 ([1]; read-out: IC50) [µM]
COc1cc(O)c2c(O)c3c(=O)cc(C)oc3c(OC)c2c1	Not Active	Not Active	
CCCc1cc(=O)c2c(O)c3c(O)cc(OC)cc3c(OC)c2o1	Not Active	Not Active	
COc1c(O)c2c(=O)cc(C)oc2c2c(OC)cc(O)cc12		59.3%	11.9
COc1c(OC)c2c(=O)cc(C)oc2c2c(OC)cc(O)cc12	Not Active	Not Active	
CCCc1cc(=O)c2c(OC)cc3cc(O)cc(OC)c3c2o1		46.3%	5.9
CCCc1cc(=O)c2c(O)c3c(OC)cc(O)cc3cc2o1	Not Active	Not Active	
COc1cc(O)cc2cc3oc(C)cc(=O)c3c(O)c12	Not Active	Not Active	
CCCc1cc(=O)c2c(OC)c(OC)c3cc(O)cc(OC)c3c2o1		44%	16.6
CCCc1cc(=O)c2c(O)c(OC)c3cc(O)cc(OC)c3c2o1		27.5%	> 20
COc1cc(O)cc2cc(O)c3c(=O)cc(C)oc3c12		31%	12.8
CCCc1cc(=O)c2c(O)cc3cc(O)cc(OC)c3c2o1 [COMAPARVIN]		54.3%	9
